According to US9637453B2, “3-spirocyclic-6-hydroxamic acid tetralins as HDAC inhibitors” (Forma Therapeutics, Inc., priority 2015, dated 2017):

Assays:
[1] = target: T1, Full length human recombinant HDAC11 (Homo sapiens, UniProt Q96DB2); assay: In vitro histone deacetylase assay, enzymatic HDAC11 (electrophoretic mobility shift assay); assay type: biochemical; conditions: 10 nM HDAC11; 2 μM peptide substrate FAM-RHKK(tri-fluor-Ac)—NH2; 25° C.; 12 concentrations; read-out: HDAC11 Activity Range (IC50)
T1 construct: Full length human recombinant HDAC6 and HDAC11 proteins were expressed in baculoviral system
T1 sequence (Q96DB2 1-347): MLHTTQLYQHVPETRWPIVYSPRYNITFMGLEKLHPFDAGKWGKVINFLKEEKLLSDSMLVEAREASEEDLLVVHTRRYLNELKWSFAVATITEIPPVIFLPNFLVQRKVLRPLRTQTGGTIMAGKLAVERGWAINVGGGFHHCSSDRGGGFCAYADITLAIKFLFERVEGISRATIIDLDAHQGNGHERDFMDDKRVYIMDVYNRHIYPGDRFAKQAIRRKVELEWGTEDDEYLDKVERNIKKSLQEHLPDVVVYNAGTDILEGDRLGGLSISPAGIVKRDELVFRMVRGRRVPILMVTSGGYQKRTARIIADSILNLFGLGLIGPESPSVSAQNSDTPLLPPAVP
Method in brief: (§1)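 Baculovirus-expressed full-length enzymes (HDAC6 1 nM, FAM-RHKK(Ac)-NH2; HDAC11 10 nM, FAM-RHKK(tri-fluor-Ac)-NH2), 2 μM substrate, HEPES pH 7.5, 25°C, 12-point 3× dilutions. Product/substrate separated by microfluidic mobility shift after SDS quench; IC50 from 4-parameter fit, reported as +/++/+++ bins.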

[2] = target: T2, Full length human recombinant HDAC6 (Homo sapiens, UniProt Q9UBN7); assay: In vitro histone deacetylase assay, enzymatic HDAC6 (electrophoretic mobility shift assay); assay type: biochemical; conditions: 1 nM HDAC6; 2 μM peptide substrate FAM-RHKK(Ac)—NH2; 25° C.; 12 concentrations; read-out: HDAC6 Activity Range (IC50)
T2 construct: Full length human recombinant HDAC6 and HDAC11 proteins were expressed in baculoviral system
T2 sequence (Q9UBN7 1-1215): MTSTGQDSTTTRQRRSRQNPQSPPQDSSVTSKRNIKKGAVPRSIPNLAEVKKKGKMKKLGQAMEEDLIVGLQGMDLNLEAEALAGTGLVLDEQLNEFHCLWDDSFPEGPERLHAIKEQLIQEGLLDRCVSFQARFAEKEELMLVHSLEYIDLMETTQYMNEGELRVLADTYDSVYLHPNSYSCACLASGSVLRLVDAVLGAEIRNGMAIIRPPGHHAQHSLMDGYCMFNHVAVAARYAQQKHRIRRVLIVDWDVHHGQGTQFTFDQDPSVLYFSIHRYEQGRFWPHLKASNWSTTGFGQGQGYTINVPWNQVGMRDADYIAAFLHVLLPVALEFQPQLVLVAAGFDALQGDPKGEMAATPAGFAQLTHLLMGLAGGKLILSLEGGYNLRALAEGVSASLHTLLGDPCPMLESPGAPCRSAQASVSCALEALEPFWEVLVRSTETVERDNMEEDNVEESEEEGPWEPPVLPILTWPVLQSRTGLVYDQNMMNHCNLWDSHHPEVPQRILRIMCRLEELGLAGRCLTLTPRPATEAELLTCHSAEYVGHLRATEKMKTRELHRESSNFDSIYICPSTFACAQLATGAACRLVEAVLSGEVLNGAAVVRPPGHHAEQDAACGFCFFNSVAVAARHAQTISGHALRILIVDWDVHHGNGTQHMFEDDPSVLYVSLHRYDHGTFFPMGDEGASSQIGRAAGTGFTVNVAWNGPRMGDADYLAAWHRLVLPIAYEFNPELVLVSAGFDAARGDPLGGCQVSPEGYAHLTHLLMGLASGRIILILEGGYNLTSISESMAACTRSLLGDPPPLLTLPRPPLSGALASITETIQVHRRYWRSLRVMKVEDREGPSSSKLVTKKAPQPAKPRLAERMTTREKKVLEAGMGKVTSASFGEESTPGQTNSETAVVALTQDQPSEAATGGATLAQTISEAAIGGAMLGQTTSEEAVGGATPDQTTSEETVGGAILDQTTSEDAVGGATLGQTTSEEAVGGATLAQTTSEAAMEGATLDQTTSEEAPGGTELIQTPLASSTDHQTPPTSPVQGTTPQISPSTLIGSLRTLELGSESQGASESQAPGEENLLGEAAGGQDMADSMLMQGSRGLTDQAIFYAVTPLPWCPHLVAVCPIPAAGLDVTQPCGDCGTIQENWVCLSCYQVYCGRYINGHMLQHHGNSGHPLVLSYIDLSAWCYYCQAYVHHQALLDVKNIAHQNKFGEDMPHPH
Method in brief: as §1

Row | Compound | IC50 [1] [nM] | IC50 [2] [nM]
1 | Cc1ccc(CN2CC[C@]3(CCc4ccc(C(=O)NO)cc4C3)C2=O)cc1 [Compound I-123, (R)—N-hydroxy-1′-(4-methylbenzyl)-2′-oxo-3,4-dihydro-1H-spiro[naphthalene-2,3′-pyrrolidine]-7-carboxamide] | > 500 | ≤ 100
2 | O=C(NO)c1ccc2c(c1)C[C@@]1(CC2)CCN(Cc2ccc(C(F)(F)F)c(F)c2)C1=O [Compound I-124, (S)-1′-(3-fluoro-4-(trifluoromethyl)benzyl)-N-hydroxy-2′-oxo-3,4-dihydro-1H-spiro[naphthalene-2,3′-pyrrolidine]-7-carboxamide] | ≤ 100 | ≤ 100
3 | O=C(NO)c1ccc2c(c1)C[C@@]1(CC2)CCN(Cc2ccc(C(F)(F)F)cc2)C1=O [Compound I-126, (S)—N-hydroxy-2′-oxo-1′-(4-(trifluoromethyl)benzyl)-3,4-dihydro-1H-spiro[naphthalene-2,3′-pyrrolidine]-7-carboxamide] | ≤ 100 | ≤ 100
4 | CN1C[C@@]2(CCc3ccc(C(=O)NO)cc3C2)CC1=O [Compound I-130, (R)—N-hydroxy-1′-methyl-5′-oxo-3,4-dihydro-1H-spiro[naphthalene-2,3′-pyrrolidine]-7-carboxamide] | > 500 | ≤ 100
5 | CN1C[C@]2(CCc3ccc(C(=O)NO)cc3C2)CC1=O [Compound I-131, (S)—N-hydroxy-1′-methyl-5′-oxo-3,4-dihydro-1H-spiro[naphthalene-2,3′-pyrrolidine]-7-carboxamide] | > 500 | ≤ 100
6 | O=C(NO)c1ccc2c(c1)C[C@@]1(CC2)CC(=O)N(c2ccccc2)C1 [Compound I-132, (S)—N-hydroxy-5′-oxo-1′-phenyl-3,4-dihydro-1H-spiro[naphthalene-2,3′-pyrrolidine]-7-carboxamide] | > 500 | ≤ 100
7 | O=C(NO)c1ccc2c(c1)C[C@@]1(CC2)CC(=O)N(CC2CCC2)C1 [Compound I-134, (S)-1′-(cyclobutylmethyl)-N-hydroxy-5′-oxo-3,4-dihydro-1H-spiro[naphthalene-2,3′-pyrrolidine]-7-carboxamide] | > 500 | ≤ 100

Other lines, results leading:

Row | IC50 [1] [nM] | IC50 [2] [nM] | Compound
8 | 100 to 500 | ≤ 100 | O=C(NO)c1ccc2c(c1)C[C@]1(CC2)CCN(Cc2ccc(C(F)(F)F)c(F)c2)C1=O [Compound I-125, (R)-1′-(3-fluoro-4-(trifluoromethyl)benzyl)-N-hydroxy-2′-oxo-3,4-dihydro-1H-spiro[naphthalene-2,3′-pyrrolidine]-7-carboxamide]
9 | 100 to 500 | ≤ 100 | O=C(NO)c1ccc2c(c1)C[C@]1(CC2)CCN(Cc2ccc(C(F)(F)F)cc2)C1=O [Compound I-127, (R)—N-hydroxy-2′-oxo-1′-(4-(trifluoromethyl)benzyl)-3,4-dihydro-1H-spiro[naphthalene-2,3′-pyrrolidine]-7-carboxamide]
10 | > 500 | ≤ 100 | O=C(NO)c1ccc2c(c1)C[C@]1(CC2)CC(=O)N(Cc2ccc(F)cc2)C1 [Compound I-128, (R)-1′-(4-fluorobenzyl)-N-hydroxy-5′-oxo-3,4-dihydro-1H-spiro[naphthalene-2,3′-pyrrolidine]-7-carboxamide]
11 | > 500 | ≤ 100 | O=C(NO)c1ccc2c(c1)C[C@@]1(CC2)CC(=O)N(Cc2ccc(F)cc2)C1 [Compound I-129, (S)-1′-(4-fluorobenzyl)-N-hydroxy-5′-oxo-3,4-dihydro-1H-spiro[naphthalene-2,3′-pyrrolidine]-7-carboxamide]
12 | > 500 | ≤ 100 | O=C(NO)c1ccc2c(c1)C[C@]1(CC2)CC(=O)N(CC2CCC2)C1 [Compound I-133, (R)-1′-(cyclobutylmethyl)-N-hydroxy-5′-oxo-3,4-dihydro-1H-spiro[naphthalene-2,3′-pyrrolidine]-7-carboxamide]
13 | > 500 | ≤ 100 | COCCCN1C[C@@]2(CCc3ccc(C(=O)NO)cc3C2)CC1=O [Compound I-135, (R)—N-hydroxy-1′-(3-methoxypropyl)-5′-oxo-3,4-dihydro-1H-spiro[naphthalene-2,3′-pyrrolidine]-7-carboxamide]
